Laboratory results: patent US20260232763A1 (Kadmon Corporation, LLC, priority 2023, published 2026)
Read-outs that look alike come from different tables or passages of the source.

Legend:
solubility = type: physicochemical; conditions: in vitro assessments
clinical = conditions: male, human, in vivo
Protocol: On Day 10, the victim and perpetrator IMPs were administered simultaneously.
On the evening before each dose, participants were provided with a light snack and were required to fast from all food and drink (except water) for a minimum of 10 hours until the following morning. All study interventions were administered in the fed state, following completion of a standard breakfast (with dosing planned to occur 30 minutes after the start of the breakfast).
The PK parameters underwent a natural logarithmic transformation and were analyzed using a mixed effect modelling technique. Adjusted geometric mean ratios and 90% confidence intervals (CIs) of the ratios were obtained for each comparison. The ratio was defined as test/reference. In addition, the intraparticipant variability were also presented. […] No formal interim analyses were performed for this study.

pregnant rabbits = conditions: cited from earlier work
[1] = test system: human […]1-acid glycoprotein; conditions: in vitro; cited from earlier work
CYP3A4 = CYP3A4 (Homo sapiens, UniProt P08684); conditions: in vitro; cited from earlier work
CYP3A4, sequence (P08684 whole entry): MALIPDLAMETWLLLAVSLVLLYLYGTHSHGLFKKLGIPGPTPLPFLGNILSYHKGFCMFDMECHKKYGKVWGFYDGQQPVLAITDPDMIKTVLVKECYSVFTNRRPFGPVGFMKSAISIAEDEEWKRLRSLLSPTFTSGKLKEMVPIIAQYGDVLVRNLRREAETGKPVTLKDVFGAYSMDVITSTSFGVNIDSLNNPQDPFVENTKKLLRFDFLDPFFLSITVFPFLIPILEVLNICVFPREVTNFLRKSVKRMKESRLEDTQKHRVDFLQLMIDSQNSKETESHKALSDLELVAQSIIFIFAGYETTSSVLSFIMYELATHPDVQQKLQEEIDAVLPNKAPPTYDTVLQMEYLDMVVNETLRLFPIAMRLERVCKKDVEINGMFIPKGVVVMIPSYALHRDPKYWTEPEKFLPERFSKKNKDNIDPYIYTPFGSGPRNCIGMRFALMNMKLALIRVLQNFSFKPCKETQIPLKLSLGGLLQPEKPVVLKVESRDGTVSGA

[2] = healthy subjects, cited from earlier work
BCRP = biological target: T1, BCRP (Homo sapiens, UniProt Q9UNQ0); conditions: in vitro, at clinically relevant concentrations; cited from earlier work
T1 sequence (Q9UNQ0 1-655): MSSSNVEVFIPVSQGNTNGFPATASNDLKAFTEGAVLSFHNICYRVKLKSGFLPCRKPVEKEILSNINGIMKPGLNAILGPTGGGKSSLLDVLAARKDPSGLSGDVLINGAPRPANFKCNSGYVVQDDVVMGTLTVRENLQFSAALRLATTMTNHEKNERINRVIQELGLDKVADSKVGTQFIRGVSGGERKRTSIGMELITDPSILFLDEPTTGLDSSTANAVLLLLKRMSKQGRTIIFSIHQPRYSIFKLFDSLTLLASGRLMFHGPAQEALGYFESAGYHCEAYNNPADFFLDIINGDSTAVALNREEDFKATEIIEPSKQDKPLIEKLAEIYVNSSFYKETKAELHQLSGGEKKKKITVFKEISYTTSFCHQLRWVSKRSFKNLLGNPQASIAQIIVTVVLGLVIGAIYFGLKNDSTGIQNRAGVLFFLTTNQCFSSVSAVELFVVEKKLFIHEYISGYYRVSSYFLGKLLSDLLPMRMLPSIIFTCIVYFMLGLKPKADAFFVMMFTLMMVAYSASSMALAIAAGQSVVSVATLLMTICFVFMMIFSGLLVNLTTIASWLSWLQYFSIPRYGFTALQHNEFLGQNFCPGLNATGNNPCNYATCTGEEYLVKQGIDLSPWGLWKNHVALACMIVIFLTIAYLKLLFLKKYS

CYP1A2 = biological target: T2, CYP1A2 (Homo sapiens, UniProt P05177); conditions: in vitro; cited from earlier work
T2 sequence (P05177 1-516): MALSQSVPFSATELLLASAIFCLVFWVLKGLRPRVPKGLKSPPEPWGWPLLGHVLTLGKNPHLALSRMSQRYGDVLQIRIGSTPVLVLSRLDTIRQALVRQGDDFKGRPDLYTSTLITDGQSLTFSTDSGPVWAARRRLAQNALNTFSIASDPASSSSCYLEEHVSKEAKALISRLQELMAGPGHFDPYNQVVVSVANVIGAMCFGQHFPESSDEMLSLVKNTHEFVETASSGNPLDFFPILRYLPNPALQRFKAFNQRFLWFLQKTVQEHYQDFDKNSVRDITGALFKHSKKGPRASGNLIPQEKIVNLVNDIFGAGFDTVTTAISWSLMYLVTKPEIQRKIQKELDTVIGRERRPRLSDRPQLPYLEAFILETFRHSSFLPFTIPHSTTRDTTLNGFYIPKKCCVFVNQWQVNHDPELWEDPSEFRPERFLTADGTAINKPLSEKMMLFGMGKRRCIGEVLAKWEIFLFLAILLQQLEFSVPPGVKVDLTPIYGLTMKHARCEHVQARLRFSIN

UGT1A1 = biological target: T3, UGT1A1 (Homo sapiens, UniProt P22309); conditions: in vitro; cited from earlier work
T3 sequence (P22309 26-533): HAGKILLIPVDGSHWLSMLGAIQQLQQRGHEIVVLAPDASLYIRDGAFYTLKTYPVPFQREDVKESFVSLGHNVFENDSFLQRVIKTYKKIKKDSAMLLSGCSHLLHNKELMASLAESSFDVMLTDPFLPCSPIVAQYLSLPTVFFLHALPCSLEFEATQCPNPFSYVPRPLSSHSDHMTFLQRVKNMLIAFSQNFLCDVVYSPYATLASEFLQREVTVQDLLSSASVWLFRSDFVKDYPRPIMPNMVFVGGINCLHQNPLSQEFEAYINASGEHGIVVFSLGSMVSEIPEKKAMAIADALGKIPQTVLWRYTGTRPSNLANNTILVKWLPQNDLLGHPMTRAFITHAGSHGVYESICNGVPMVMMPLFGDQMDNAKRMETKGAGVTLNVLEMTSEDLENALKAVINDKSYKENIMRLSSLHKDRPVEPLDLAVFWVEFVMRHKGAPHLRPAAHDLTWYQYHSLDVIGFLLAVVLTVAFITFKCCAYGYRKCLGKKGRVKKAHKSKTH

rat bone marrow = rat bone marrow micronucleus; cited from earlier work
[3] = coadministration of rabeprazole

Structure (SMILES): CC(C)NC(=O)COc1cccc(-c2nc(Nc3ccc4[nH]ncc4c3)c3ccccc3n2)c1 [belumosudil, 2-{3-[4-(1H-indazol-5-ylamino)-2-quinazolinyl]phenoxy}-N-(propan-2-yl) acetamide]
- solubility (solubility): pH dependent
- Tmax (clinical): 1.5 to 2 h
- increase of exposures (Cmax and AUC) following multiple dosing (clinical): 1.21-1.57 fold
- AUC(0-last), geometric mean (clinical; 200 mg): 9710 ng·h/mL
- AUC(0-tau), geometric mean (clinical; 200 mg): 9710 ng·h/mL
- Cmax, geometric mean (clinical; 200 mg): 2080 ng/mL
- T1/2, geometric mean (clinical; 200 mg): 4.901 h
- half-life (clinical; 200 mg): ~5 h
- maternal exposures (AUC) with adverse developmental outcomes, times the human exposure (AUC) at the recommended dose (pregnant rabbits; pregnant rabbits, period of organogenesis): ≥ 0.07 times
- dose with embryo-fetal effects (pregnant rabbits; rabbits, oral): ≥ 50 mg/kg/day
- dose with maternal toxicity (body weight loss and mortality) (pregnant rabbits; rabbits, oral): ≥ 125 mg/kg/day
- binding to human […]1-acid glycoprotein [1]: 98.6%
- metabolism (CYP3A4): primarily metabolized by CYP3A4 and to a lesser extent by CYP2C8, CYP2D6, and UGT1A9
- effect on belumosudil exposure ([2]; coadministered with itraconazole): no clinically meaningful effect
- decrease of AUC ([2]; coadministration of omeprazole): 47%
- decrease of Cmax ([2]; coadministration of omeprazole): 68%
- decrease of AUC [2, 3]: 80%
- decrease of Cmax [2, 3]: 87%
- decrease of AUC ([2]; coadministration of rifampin): 72%
- decrease of Cmax ([2]; coadministration of rifampin): 59%
- BCRP inhibition (BCRP): inhibits
- CYP1A2 inhibition (CYP1A2): inhibitor
- UGT1A1 inhibition (UGT1A1): inhibitor
- genotoxicity (rat bone marrow): not genotoxic
